Source: patent publication US8207137B2, “Method of inhibiting angiogenesis or invasion or formation of metastases” (INSERM, priority 2001, dated 2012)

What was measured:
CPAE cells [1] = assay: Model of endothelial cell migration (agarose, 24-well plates); format: cell-based, bovine
Experimental: The migration model was implemented in 24-well plates. 1.5% agarose was dissolved in the culture medium to form a gel in the wells. Half of an agarose cylinder was then inserted in a well. The CPAE cells were added to the free space left in the well and cultured until their confluence. The piece of agarose was then removed to allow the cells to migrate and AMEP was added, at the desired concentrations, to the culture medium. Then, a transparent graph paper was placed under the plate to determine the migration rate of the cells using an ocular micrometer under reverse microscope. The experiments were performed in duplicate and repeated three times. The results were expressed in percentage in relation to the control.

endothelial cells (CPAE) = assay: Apoptosis and cell cycle by flow cytometry (Hoechst 33342 and annexin V); format: cell-based, bovine
Experimental: Technique of specific vital staining of DNA with Hoechst 33342 (Sigma).
The endothelial cells (CPAE) were trypsinated and the cell suspension was adjusted to 1·10^6 cells/ml. Hoechst 33342 dye was added at the rate of 20 μg/ml and the cells were incubated for three minutes at ambient temperature under agitation. The percentage of apoptotic cells was analyzed by a flow cytometer (FACS). The cells were then incubated for 30 minutes in darkness (37° C.) and analysis of the cell cycle was performed.
Technique using annexin V (R and D system): A residue of 1·10^6 endothelial cells (CPAE) was resuspended in 1 ml of reaction buffer (100 μl of 10× binding buffer (100 mM Hepes/NaOH pH 7.4, 1.5 M NaCl, 50 mM KCl, 10 mM MgCl2, 18 mM CaCl2), 100 μl of propidium iodide (initial concentration 50 μg/ml), 10 μl of annexin V-FITC and 790 μl of deionized water. The suspension was incubated for 15 minutes in darkness at ambient temperature. The percentage of apoptotic cells was analyzed by flow cytometry.

HMEC-1 cells = assay: Formation of capillary structures in fibrin gel, Cytodex beads model; format: cell-based, human
Experimental: The second model used beads on the order of 150 μm according to the technique described by Nehl et al. The cells used were HMEC-1 since CPAE could not be used in this model. The HMEC-1 cells cannot, however, be employed in the previously described model. The HMEC-1 cells adhere to the Cytodex 3 beads (Sigma) when the cells are incubated with the beads in the complete medium for 4 h at 37° C. The beads were then resuspended in a large volume of complete medium to have 30 cells/beads and agitated for 5 minutes every 30 minutes at 30 rpm for 12 h, followed by a continuous culture at the same rate for 4 days. When the entire surface of the beads was covered by cells, the beads were centrifuged at 800 g for 5 minutes to concentrate and incorporate them in a fibrin gel the same as that described for the preceding model, and the same as the methods of quantification and analysis of the results. In contrast to the model used for the CPAE, the capillary structures only appeared after 3 days of culture at 37° C.

CPAE cells [2] = assay: Formation of capillary structures in fibrin gel, cell aggregates model; format: cell-based, bovine; settings: 5 μg/ml or 10 μg/ml, 3 days of incubation
Experimental: One of the models used the aggregates of CPAE cells according to the method described by Pepper et al., 1991. In brief, 10,000 CPAE were aggregated for 24 hours on 2% agarose on a 96-well plate. Three aggregates collected and incorporated in a fibrin gel: purified fibrinogen (3 mg/ml; Kabi) was dialyzed against MEM medium then mixed with 20% of FCS, 1% of L-glutamine, 1% of penicillin/streptomycin, 2 μM of aprotinin and AMEP at the desired concentration. Human thrombin (1 IU/ml; Sigma) was then added to obtain a fibrin gel to the surface of which was added the complete medium supplemented by aprotinin (2 μM), with this medium being changed every three days. Formation of capillary structures could be observed after 24 hours of culture. These capillaries were photographed under reverse microscope and the size of these structures was measured on the photographs. The statistical analysis (Mann-Whitney method) made it possible to determine whether the size of these structures was different.

[3] = system: MDA MB 231 subcutaneous solid tumors; assay: Quantification of tumoral angiogenesis (CD31 immunohistochemistry and image analysis); format: in vivo, nude mice
Experimental: The tumor tissues were fixed in ethanol. Sections of 5 μm were prepared in paraffin. The endogenous peroxidase was extinguished by 3% of H2O2 for 10 minutes so that the sections could be used in immunohistochemistry. After washing the sections with distilled water then saturation with 1:10 Optimax serum (BioGenex, San Ramon, Calif.) for 10 minutes, the slides were incubated for 1 h with an anti-CD31 rat antibody (endothelial cell adhesion molecule) at 1:50. After two washings with Optimax for 4 minutes, the slides were incubated with an anti-rat goat polyclonal antibody coupled to biotin (1/50) followed by two 4-minute washings with Optimax. The slides were then treated with a DAB chromogenic substrate for 10 minutes, washed with distilled water, counterstained with Mayer's hematoxylin and mounted on Pertex. All of the slides were immunotagged and counterstained on the same day to ensure a standardized intensity of the tagging.
For each animal, a representative histological sample of the sections tagged with CD31 was subjected to image analysis using an AxiophotZeiss microscope (Germany) and a Sony 3CCD camera (resolution 768×576 pixels). Selection of an enlargement×100 allowed digitization of the totality of the sample. […] The images were analyzed with a specific Linux-based program producing a quantitative index from 0 to 255. […]

## AMEP: disintegrin domain of human metargidin (Met-420 to Glu-511, SEQ ID NO. 2), 91 amino acids, 9.7 kDa; recombinant or expressed in vivo by gene electrotransfer
CPAE cells [1]; 10 μg/ml, phase-contrast microscope (FIG. 3)
  number of dead endothelial cells (floating in the culture medium): augmentation of the number of dead endothelial cells
CPAE cells [1]; CPAE, 10 μg/ml
  inhibition of cell migration: complete inhibition
CPAE cells [1]; CPAE, 2-10 μg/ml
  effect on the displacement rate of the cells: dose dependent
Endothelial cells (CPAE); CPAE, AMEP 5 μg/ml, control 3.9 ± 1.1, mean±SEM
  % of apoptotic cells, Hoechst 33342 method: 12.6 ± 3.7%
Endothelial cells (CPAE); CPAE, AMEP 5 μg/ml, control 4.6 ± 0.9, mean±SEM
  % of apoptotic cells, Annexin-V method: 12.8 ± 2.5%
Endothelial cells (CPAE); Hoechst 33342, not shown
  modification of the cell cycle: no modification of the cell cycle
Endothelial cells (CPAE); both methods (Hoechst 33342, annexin-V)
  percentage of apoptotic cells multiplied by (factor versus control): 3
HMEC-1 cells; HMEC-1 on beads in fibrin gel, 5 μg/ml, after 10 days
  reduction in the size of the tubes (capillary structures): 90%
HMEC-1 cells; HMEC-1 on beads in fibrin gel, 5 μg/ml, after three days of culture
  effect on formation of capillary structures: inhibitory effect
HMEC-1 cells; model using HMEC-1, in the presence of AMEP
  formation of capillary structures: total inhibition
CPAE cells [2]
  effect on capillary structures: disorganization of capillary structures
[3]; CD31-tagged tumor sections, index scale 0 to 255, control group 2.96
  statistical index of tumor vascularization, Mean: 1.38
[3]; tumors of nude mice treated with AMEP versus control
  inhibition of the number of vessels within the tumors: 53.4%
